pIC50, pKi: −log10 of the molar value.
Experiments:
[1] = molecular target: T1, C1b domain of human PKD1 (PKCμ) (Homo sapiens, UniProt Q15139); test: Competitive 3H-PDBu binding assay, C1b domain of PKD1 (PKCμ); settings: 3H-PDBu competition
T1 construct: Genes encoding C1b domains of human PKCα, δ, ε, θ, and PKD1 (PKCμ) were synthesized; made in house; host or cells: E. coli BL21(DE3)
T1 sequence (Q15139 270-320 limits assumed): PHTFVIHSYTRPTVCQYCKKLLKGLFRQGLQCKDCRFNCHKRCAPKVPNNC
Protocol: (§1) Compounds described in this disclosure were tested for binding affinity to C1b domain of PKC isoforms. Compound binding affinity to C1b domain of PKC isoforms was derived from competitive binding assay using radioactive tracer ^3H-PDBu and recombinant GST-C1b or full-length of human PKC proteins based on modified procedures from Methods in Molecular Biology, vol.
(§2) Genes encoding C1b domains of human PKCα, δ, ε, θ, and PKD1 (PKCμ) were synthesized and inserted into pGEX-2TK or pGEX-4T1 vectors for expression and production of GST-C1b proteins in E. coli BL21(DE3) via IPTG induction. The target proteins were purified by glutathione sepharose 4B and followed by ion exchange chromatography if needed to achieve purity >70%. Aliquots of the purified proteins were stored at −80 degree for binding assay (storage buffer: 20 mM Tris pH 8.0, 200 mM NaCl, 10% glycerol, 1 mM DTT).
(§3) The plate was incubated at 37° C. on a shaker at 300 rpm for 10 minutes and then put on ice for 20 minutes. […] The bottom of the filter plate was sealed and 50 μL of MicroScint-20 (PerkinElmer) cocktail was added to each well. ^3H-PDBu trapped in each well was counted using PerkinElmer MicroBeta2 Reader. Data were analyzed using GraphPad Prism5 with the model “log(inhibitor) vs. response-variable slope” to fit the IC50, and then IC50 was transformed to Ki using Cheng-Prusoff equation: Ki=IC50/(1+added radio ligand/Kd). Kd is the binding affinity of each protein preparation to ^3H-PDBu, determined experimentally.

A549 cell line = test: Proliferation of A549 (CellTiter Glo); type: cell-based; settings: Homo sapiens, A549, 96 h, read-out: IC50 μM (A549 Cell Line)
Protocol: (§4) The diterpenoid compounds were tested in A549, a non-small cell lung cancer cell line harboring a K-Ras activating mutation. Briefly, A549 cells at a density of 1,000 cells/well were seeded in 96-well plates and incubated at 37° C. for 24 hours. A series of different concentrations of compound stocks (500×) were prepared by 3-fold serial dilution in DMSO. These compounds were further diluted in culture media and then added to cells so that the final DMSO concentration was not exceeding 0.25%. After 96 hours of incubation, 50 μL of CellTiter Glo reagent (Promega) was added to each well and luminescence was measured after 10 minutes using EnVision (PerkinElmer). Luminescence from cells treated with DMSO alone was set as Max and % of inhibition was calculated as follows: Inhibition %=(Max-Sample value)/Max×100. Data was analyzed using XL-fit software (ID Business Solutions Ltd.) and IC50, relative IC50, and % of top inhibition was calculated. Some of the compounds in this disclosure were very potent in blocking proliferation of A549 lung cancer cells at low nM range. In addition, potency of inhibiting A549 proliferation correlated well with its binding affinity to PKCs for this series of compounds. In other words, higher affinity binders had stronger inhibitory effects on A549 proliferation. This further support the notion that activation, rather than inhibition, of certain PKC isoforms is required to block proliferation of cancer cells, some of which may harbor K-Ras mutations. This is in sharp contrast to previous literature and common belief that inhibition of PKC is necessary to block cancer cell growth (Kang, 2014, New Journal of Science, 2014:1-36). Data presented here is in agreement with recent findings that many loss-of-function but not gain-of-function mutations of PKC isoforms have been identified in many human cancers (Antal et al., 2015, Cell, 160:489-502).

CT26 tumors = test: CT26 tumor after single dose intratumoral treatment, H&E stain and CD31 IHC; type: in vivo, mouse; settings: 24h, all dose levels (47.2 μg, 141.6 μg, and 472 μg)
Protocol: Method. Each 6-8 weeks old female Balb/c mouse was implanted with 3×10^5 CT26 mouse colon cancer cells in one flank for tumor development. When the average tumor volume reached 95 mm^3, 21 mice were randomized into different groups and were treated via a single IT injection (20 uL) according to the group assignment (different dose and treatment duration) in the table below. Tumors were harvested at 1h, 7h, or 24h post IT injection, and then fixed and processed for paraffin embedding.
Paraffin blocks were sectioned into […] sections using Leica RM2235 microtome. One section was stained for Hematoxylin-Eosin (H&E) using Leica ST5020-CV5030 stainer integrated workstation according to the Manufacture's procedure. Photos were taken using Nikon DS-Ri2. Another section was processed for IHC staining with the CD31 antibody (BD, Cat #550274) at 1:10 dilution. The stained slides were scanned using Leica Aperio VERSA 8 and the images were analyzed using HALO image analysis software system (Indica Labs).

C1b domain of human PKCδ = molecular target: T2, C1b domain of human PKCδ (Homo sapiens, UniProt Q05655); test: biochemical; type: binding; settings: 3H-PDBu competition
T2 construct: Genes encoding C1b domains of human PKCα, δ, ε, θ, and PKD1 (PKCμ) were synthesized; made in house; host or cells: E. coli BL21(DE3)
Protocol: as §1, §2, §3

Mino (Lymphoma) = test: Proliferation of Mino; type: cell-based
Protocol: as §4
(§5) The compounds in this disclosure were tested for their potency in blocking proliferation of a few other cancer cells lines, including K-Ras mutant pancreatic cell lines Panc2.13 and KP-4, leukemia cell line HL-60, and lymphoma cell lines Namalwa and Mino. Similar procedures as in Example 67 were followed. Initial cell numbers seeded in 96-well plates were different for different cell lines: 3000 cells/well for Panc2.13; 800-1000 cells/well for KP-4; 5000 cells/well for HL-60; 5000-10000 cells/well for Namalwa and Mino. A ratio of (IC50 of K101)/(IC50 of compound) (data in parenthesis in Table 5) was used to normalize the compound potency from different assay batches to a common comparator K101.

Hela cells = test: In vitro scratch wound healing assay; type: cell-based; settings: 24h
Protocol: Scratch wound healing assay creates a gap by scratching a confluent monolayer of cells to mimic a wound and then measures the ability of cells to fill up the gap (wound) in the presence of DMSO or test compounds. 1.2-1.5×10^5 Hela cells in 1 mL media RPMI-1640 with 10% FBS were seeded in 24-well plates. Cells were starved for overnight in the same media without FBS when cells became confluent. After starvation, a scratch was made in the middle of the well and the plates were washed three times to remove detached cells. DMSO or different concentrations of compounds were diluted and added to the cells. The assay plates were put into Incucyte S3 and scanned with 4× scanner setting regularly. The imaging results were exported and the wound area was analyzed by ImageJ. Wound healing or closure was calculated by the following formula: wound healing %=(wound area at 0h−wound area at 24h)/wound area 0h*100%. Relative wound healing was calculated by dividing wound healing % of compound treatment to that of DMSO*100%.

C1b domain of human PKCε = molecular target: T3, C1b domain of human PKCε (Homo sapiens, UniProt Q02156); test: biochemical; type: binding; settings: 3H-PDBu competition
T3 construct: Genes encoding C1b domains of human PKCα, δ, ε, θ, and PKD1 (PKCμ) were synthesized; made in house; host or cells: E. coli BL21(DE3)
Protocol: as §1, §2, §3

[2] = system: NFκB-driven transcription in HeLa-NFκB luciferase reporter cell line; test: NFκB luciferase reporter assay; settings: Homo sapiens, HeLa, 16 h, read-out: NFκB-luc HeLa cells EC50 (μM)
HL-60 (Leukemia) = test: Proliferation of HL-60; type: cell-based
Protocol: as §4, §5

Namalwa (Lymphoma) = test: Proliferation of Namalwa; type: cell-based
Protocol: as §4, §5

T2 sequence (Q05655 230-280 limits assumed): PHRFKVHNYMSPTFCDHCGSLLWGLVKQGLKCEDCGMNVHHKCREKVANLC
T3 sequence (Q02156 242-292 limits assumed): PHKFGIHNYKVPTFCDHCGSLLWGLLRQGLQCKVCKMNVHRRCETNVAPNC

| SMILES | pKi [1] | IC50 (A549 cell line) | also measured |
| --- | --- | --- | --- |
| CSC[C@H](N)C(=O)O[C@@]12C[C@@H](C)[C@@]3(O)[C@@H](C=C(CO)C[C@]4(O)C(=O)C(C)=C[C@@H]34)[C@@H]1C2(C)C | 7.00 to 7.22 | 5 to 10 µM | – |
| CC1=C[C@H]2[C@@]3(O)[C@H](C)C[C@]4(OC(=O)[C@H](N)CCc5ccc(C(F)(F)F)cc5)[C@H]([C@@H]3C=C(CO)C[C@]2(O)C1=O)C4(C)C | 7.52 to 8.00 | 0.2 to 0.6 µM | – |
| CC1=C[C@H]2[C@@]3(O)[C@H](C)C[C@]4(OC(=O)CC5CC6(CNC6)C5)[C@H]([C@@H]3C=C(CO)C[C@]2(O)C1=O)C4(C)C | 7.52 to 8.00 | > 30 µM | – |
| CC1=C[C@H]2[C@@]3(O)[C@H](C)C[C@]4(OC(=O)[C@H](N)CCCCCCc5ccccc5)[C@H]([C@@H]3C=C(COC(=O)[C@@H](N)C(C)C)C[C@]2(O)C1=O)C4(C)C | – | – | reduction of CD31 density, on average, compared with the vehicle control (CT26 tumors): > 50% |
| CC1=C[C@H]2[C@@]3(O)[C@H](C)C[C@]4(OC(=O)CCc5scnc5C)[C@H]([C@@H]3C=C(CO)C[C@]2(O)C1=O)C4(C)C | 7.52 to 8.00 | 0.2 to 0.6 µM | – |
| CN[C@@H](CC1CCCCC1)C(=O)O[C@@]12C[C@@H](C)[C@@]3(O)[C@@H](C=C(CO)C[C@]4(O)C(=O)C(C)=C[C@@H]34)[C@@H]1C2(C)C | – | 0.2 to 0.6 µM | pKi (C1b domain of human PKCδ): 7.52 to 8.00 |
| CC1=C[C@H]2[C@@]3(O)[C@H](C)C[C@]4(OC(=O)[C@@H](N)C(C)(C)c5ccc(C(F)(F)F)cc5)[C@H]([C@@H]3C=C(CO)C[C@]2(O)C1=O)C4(C)C | – | 0.03 to 0.06 µM | ratio (IC50 of K101)/(IC50 of compound) Mino (Mino (Lymphoma)): 15.7; pIC50 (Mino (Lymphoma); Homo sapiens, MINO, read-out: IC50 Mino (Lymphoma)): 8.00 to 9.00; Relative wound healing to control (%) (Hela cells; 20 nM): 213%; Relative wound healing to control (%) (Hela cells; 60 nM): 134%; Relative wound healing to control (%) (Hela cells; 200 nM): 201%; pKi (C1b domain of human PKCε): 7.52 to 8.00; EC50 [2]: 0.06 to 0.1 µM; ratio (IC50 of K101)/(IC50 of compound) HL-60 (HL-60 (Leukemia)): 12; pIC50 (HL-60 (Leukemia); Homo sapiens, HL-60, read-out: IC50 HL-60 (Leukemia)): 7.52 to 8.00; ratio (IC50 of K101)/(IC50 of compound) Namalwa (Namalwa (Lymphoma)): 3.5; pIC50 (Namalwa (Lymphoma); read-out: IC50 Namalwa (Lymphoma)): 7.52 to 8.00 |
| CC1=C[C@H]2[C@@]3(O)[C@H](C)C[C@]4(OC(=O)[C@H](N)CCCCCCc5ccc(C(F)(F)F)cc5)[C@H]([C@@H]3C=C(CO)C[C@]2(O)C1=O)C4(C)C | 7.52 to 8.00 | 0.06 to 0.1 µM | pKi (C1b domain of human PKCε): 7.00 to 7.22 |
| CC1=C[C@H]2[C@@]3(O)[C@H](C)C[C@]4(OC(=O)C[C@H](N)c5ccccc5)[C@H]([C@@H]3C=C(CO)C[C@]2(O)C1=O)C4(C)C | 7.52 to 8.00 | 1 to 2 µM | – |
| CC1=C[C@H]2[C@@]3(O)[C@H](C)C[C@]4(OC(=O)[C@H](N)CC5CCCCC5)[C@H]([C@@H]3C=C(CO)C[C@]2(O)C1=O)C4(C)C | – | 0.2 to 0.6 µM | pKi (C1b domain of human PKCδ): 7.52 to 8.00 |
